Columns and labels:
[1] = system: rotatory behavior induced by intrastriatal pirenzepine; assay: antagonism of rotatory behavior induced by intrastriatal injection of pirenzepine in mice; assay type: in vivo, mouse (female, Swiss, CD 1); settings: Mus musculus, ip; 50% reduction in number of rotations; i.p. 15 minutes before pirenzepine 1 μg into right striatum
Protocol: The intrastriatal injection of PZ into mice induces rotatory behavior. The antagonism of this behavior by the products according to the invention was studied. The products according to the invention are injected intraperitoneally (i.p.) after solubilization in distilled water or suspension in a 5% solution of gum arabic. The control animals receive an injection of the pure solvent under the ssame conditions. The animals used are female mice (Swiss, CD 1, Charles River, France) with a body weight of between 25 and 30 grams. The pirenzepine is dissolved in a phosphate buffer and the pH of the solution is 6. The test products of their solvents are injected intraperitoneally in a volume of 0.4 ml per 20 g of body weight, 15 minutes before a direct injection of pirenzepine into the right striatum of the mouse at a dose of 1 μg in 1 μl of solvent, according to the method described by P. WORMS et al. in Eur. J. Pharmacol., 1986, 121, 395-401. The number of contralateral rotations (rotations in the opposite direction to the side injected) was counted for three 2-minute periods after injection of the pirenzepine: 2nd to 4th, 8th to 10th and 13th to 15th minutes. Each treatment consists of 3 to 4 doses with 10 animals per dose. The total number of rotations and the percentage antagonism with respect to the control group are calculated for each treatment. The 50% effective dose (ED50), i.e. the dose which causes a 50% reduction in the number of rotations induced by pirenzepine, is determined graphically for each product.

[2] = molecular target: T1, M2-type muscarinic cholinergic receptor (Cavia porcellus, UniProt H0VRN8); assay: affinity for the M2-type muscarinic cholinergic receptor ([3H]-N-methylscopolamine displacement, smooth guinea-pig ileum muscle homogenate); assay type: binding; settings: [3H]-NMS 0.3 nM, 20 min at 30° C., pH 7.5
T1 construct: on a smooth guinea-pig ileum muscle homogenate; from tissue; host or cells: guinea-pig ileum smooth muscle homogenate
T1 sequence (H0VRN8 1-466): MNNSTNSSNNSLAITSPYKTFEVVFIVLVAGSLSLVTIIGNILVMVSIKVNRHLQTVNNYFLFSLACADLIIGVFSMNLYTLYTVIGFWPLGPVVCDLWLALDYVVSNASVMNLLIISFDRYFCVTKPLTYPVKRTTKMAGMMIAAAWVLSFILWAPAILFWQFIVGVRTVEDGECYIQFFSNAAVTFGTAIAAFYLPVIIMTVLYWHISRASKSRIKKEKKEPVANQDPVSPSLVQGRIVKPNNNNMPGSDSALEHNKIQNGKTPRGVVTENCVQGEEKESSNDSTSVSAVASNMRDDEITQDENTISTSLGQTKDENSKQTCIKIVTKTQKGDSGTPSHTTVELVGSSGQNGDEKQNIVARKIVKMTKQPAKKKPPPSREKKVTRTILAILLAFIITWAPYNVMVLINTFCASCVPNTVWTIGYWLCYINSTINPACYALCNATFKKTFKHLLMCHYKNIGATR
Protocol: The M1 -type receptors are concentrated in certain regions of the brain, such as the hippocampus, the cerebral cortex and the striatum, and also in the sympathetic ganglia. These binding sites can be selectively labeled with [^3 H]-pirenzepine ([^3 H]-PZ). The M2 -type rreceptors predominate in the heart and the ileum and can be labeled with [^3 H]-N-methylscopolamine ([^3 H]-NMS). The selectivity of the compounds of the invention with respect to the M1 and M2 sites was determined by studying their in vitro interaction with [^3 H]-PZ and [^3 H]-NMS firmly bound with a high affinity to rat hippocampus membranes and smooth guinea-pig ileum muscle, respectively.
The interaction with the M2 -type muscarinic receptors was studied by in vitro measurement, on a smooth guinea-pig ileum muscle homogenate, of the displacement of tritiated N-methylscopolamine ([^3 H]-NMS) from its specific binding sites. Aliquots (50 μl) of a 0.625% (w/v) smooth guinea-pig ileum muscle homogenate in HEPES buffer (20 mM) containing NaCl (100 mM) and MgCl2 (10 mM) (final pH: 7.5) are incubated for 20 min at 30° C. in the presence of [^3 H]-NMS ([…]; final concentration 0.3 nM) and increasing concentrations of the test products. The final volume is 1 ml. The reaction is topped by centrifugation for 5 min at 15 000×g. The non-specific binding is determined in the presence of 10 μM atropine sulfate. (Ref.: R. Hammer, C. P. Berrie, N. I. M. Birdsall, A. S. V. Burgen and E. C. Hulme, Nature, 283, 90-92, 1980; E. C. Hulme, N. I. M. Birdsall, A. S. V. Burgen and P. Mettha, Mol. Pharmacol., 14, 737-750, 1978.)
Table 5 indicates the affinities of the products of the invention for the M1 and M2 receptors. The results are expressed as 50 percent inhibitory concentrations (IC50), i.e. the concentration (in μM) which induces the displacement of 50% of the tritiated ligand bound to the membrane receptors. The IC50 for ^3 H-pirenzepine displacement represents the affinity for the M1 receptor; The IC50 for ^3 H-NMS displacement represents the affinity for the M2 receptor.

[3] = molecular target: T2, M1-type muscarinic cholinergic receptor (Rattus norvegicus, UniProt P08482); assay: affinity for the M1-type muscarinic cholinergic receptor ([3H]-pirenzepine displacement, rat hippocampus homogenate); assay type: binding; settings: for IC50: [3H]-PZ 1 nM, rat hippocampus homogenate, 2 h at 4° C., pH 7.40; for r = (M2/M1): ratio of the IC50 values for M2 (3H-NMS) and M1 (3H-pirenzepine), selectivity
T2 sequence (P08482 1-460): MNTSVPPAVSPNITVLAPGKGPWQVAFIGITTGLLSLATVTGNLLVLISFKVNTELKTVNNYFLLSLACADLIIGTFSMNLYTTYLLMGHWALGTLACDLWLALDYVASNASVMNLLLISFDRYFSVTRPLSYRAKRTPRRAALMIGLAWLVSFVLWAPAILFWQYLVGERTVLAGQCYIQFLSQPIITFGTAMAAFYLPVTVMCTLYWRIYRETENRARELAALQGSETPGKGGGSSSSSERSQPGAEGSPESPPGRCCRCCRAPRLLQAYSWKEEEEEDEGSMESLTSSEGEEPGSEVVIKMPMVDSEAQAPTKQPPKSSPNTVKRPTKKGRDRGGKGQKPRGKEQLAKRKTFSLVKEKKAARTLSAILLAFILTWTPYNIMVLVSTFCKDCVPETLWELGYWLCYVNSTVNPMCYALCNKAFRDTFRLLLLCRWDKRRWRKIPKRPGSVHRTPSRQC
Protocol: The interaction of the molecules with the M1 -type muscarinic receptors was studied by in vitro measurement, on a rat hippocampus homogenate, of the displacement of tritiated pirenzepine ([^3 H]-PZ) from its specific binding sites. Aliquots (10 μl) of a 5% (w/v) rat hippocampus homogenate in an Na2 HPO4 buffer (50 mM, pH 7.40) are incubated for 2 h at 4° C. in the presence of [^3 H]-PZ (76 Ci/nmol; final concentration 1 nM) and increasing concentrations of the test product. The final volume is 2 ml. The reaction is stopped by centrifugation for 10 min at 50 000×g. After decantation and washing of the residues, the bound radio-activity is counted by liquid scintillation. The non-specific binding is determined in the presence of 10 μM atropine sulfate. The 50% inhibitory concentration (IC50) is determined graphically.

Compound	ED50 [1] [mg/kg]	IC50 [2] [µM]	IC50 [3] [nM]	r = (M2/M1) [3]
c1ccc(-c2ccc3ncc(CN4CCOCC4)n3n2)cc1 [SR 96068 A]	10			
Clc1ccc(-c2ccc3nc(CN4CCOCC4)cn3n2)cc1 [SR 96089 A]		> 100	3000	> 33
Clc1ccc(-c2ccc3ncc(CN4CCOCC4)n3n2)cc1 [SR 96109 A]	8			
Cc1cc(-c2ccccc2)nn2c(CN3CCOCC3)cnc12.Cl.Cl [SR 95950 A, 8-Methyl-3-morpholinomethyl-6-phenylimidazo[1,2-b]pyridazine dihydrochloride]	5	> 100	1400	> 71
CN(C)Cc1cnc2ccc(-c3ccccc3)nn12 [SR 96070 A]	3			
c1ccc(-c2cc(-c3ccccc3)c3ncc(CN4CCOCC4)n3n2)cc1 [SR 96111 A]	7			
CCN(CC)Cc1cn2nc(-c3ccccc3)cc(C)c2n1.Cl.Cl [SR 96052 A, 2-Diethylaminomethyl-8-methyl-6-phenylimidazo[1,2-b]pyridazine dihydrochloride]	8	65	500	130
CCN(CC)Cc1cn2nc(-c3ccccc3)ccc2n1 [SR 96069 A]		100	1500	66
c1ccc(-c2ccc3nc(CN4CCOCC4)cn3n2)cc1 [SR 95842 A]	3			
COc1cccc(-c2cc(C)c3ncc(CN4CCOCC4)n3n2)c1 [SR 96088 A]			8000	
CCN(CC)Cc1cn2nc(-c3cccc(OC)c3)cc(C)c2n1 [SR 96095 A]	5	65	400	162
